One test has as its target T1, Histone deacetylase 11 (Homo sapiens, UniProt Q96DB2).
T1 sequence (Q96DB2 whole entry): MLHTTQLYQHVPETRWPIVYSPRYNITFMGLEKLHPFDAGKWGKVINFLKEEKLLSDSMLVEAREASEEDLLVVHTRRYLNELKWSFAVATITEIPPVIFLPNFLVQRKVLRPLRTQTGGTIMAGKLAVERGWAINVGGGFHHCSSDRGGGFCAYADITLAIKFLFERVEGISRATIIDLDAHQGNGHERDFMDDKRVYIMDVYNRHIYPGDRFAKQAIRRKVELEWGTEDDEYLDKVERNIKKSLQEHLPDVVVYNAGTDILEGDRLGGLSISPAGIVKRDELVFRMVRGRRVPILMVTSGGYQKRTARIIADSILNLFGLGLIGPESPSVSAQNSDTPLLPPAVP
The test is described as follows: Inhibition of HDAC11 (unknown origin).

The target in the next test is Histone deacetylase 3 (Homo sapiens, UniProt O15379). The experiment in a line: Inhibition of HDAC3 (unknown origin).
Histone deacetylase 3, sequence (O15379 whole entry): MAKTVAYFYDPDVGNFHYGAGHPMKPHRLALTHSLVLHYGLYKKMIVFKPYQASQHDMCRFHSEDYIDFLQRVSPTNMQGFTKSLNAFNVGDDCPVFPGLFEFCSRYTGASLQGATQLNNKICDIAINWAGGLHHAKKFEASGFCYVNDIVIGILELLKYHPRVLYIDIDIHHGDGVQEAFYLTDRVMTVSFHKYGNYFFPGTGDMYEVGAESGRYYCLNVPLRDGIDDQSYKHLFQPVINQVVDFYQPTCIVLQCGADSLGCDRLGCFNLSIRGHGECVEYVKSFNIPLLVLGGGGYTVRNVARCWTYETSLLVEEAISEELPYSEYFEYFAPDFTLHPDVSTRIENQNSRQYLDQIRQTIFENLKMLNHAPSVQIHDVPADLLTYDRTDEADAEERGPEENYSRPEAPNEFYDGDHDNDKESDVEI
The target in test [1] is T2, Polyamine deacetylase HDAC10 (Homo sapiens, UniProt Q969S8).
T2 sequence (Q969S8 whole entry): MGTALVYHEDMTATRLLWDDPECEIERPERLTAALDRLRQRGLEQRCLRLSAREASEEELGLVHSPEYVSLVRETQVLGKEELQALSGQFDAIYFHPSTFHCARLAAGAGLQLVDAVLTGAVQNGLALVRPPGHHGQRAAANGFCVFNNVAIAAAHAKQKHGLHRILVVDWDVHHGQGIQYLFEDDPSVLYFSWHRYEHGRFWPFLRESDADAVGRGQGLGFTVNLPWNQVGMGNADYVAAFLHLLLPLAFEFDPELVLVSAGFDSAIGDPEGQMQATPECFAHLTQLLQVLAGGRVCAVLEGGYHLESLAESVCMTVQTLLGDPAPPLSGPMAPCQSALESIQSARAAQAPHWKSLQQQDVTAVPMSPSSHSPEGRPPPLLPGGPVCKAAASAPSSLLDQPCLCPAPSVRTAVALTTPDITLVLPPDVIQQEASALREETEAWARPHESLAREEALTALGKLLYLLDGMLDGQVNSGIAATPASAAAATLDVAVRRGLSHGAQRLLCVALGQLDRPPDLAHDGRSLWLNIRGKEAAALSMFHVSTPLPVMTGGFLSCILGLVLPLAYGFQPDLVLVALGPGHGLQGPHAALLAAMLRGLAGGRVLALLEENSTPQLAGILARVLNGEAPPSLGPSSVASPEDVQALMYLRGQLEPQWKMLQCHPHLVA
The test is described as follows: Inhibition of HDAC10 (unknown origin).

The structures appear in SMILES notation.

As for `O=C(NO)c1ccc(CN2c3ccccc3[S+]([O-])C[C@H]3CCCC[C@H]32)cc1` (stereo partly drawn), the IC50 against Histone deacetylase 11 was determined as 0.54 µM; against Histone deacetylase 3 it was 26 µM; in test [1], 14 µM.

The values are drawn from ChEMBL document CHEMBL6078616, “Seven-membered N-heterocycles as approved drugs and promising leads in medicinal chemistry as well as the metal-free domino access to their scaffolds” (Eur J Med Chem, 2024).
